Data on nine compounds can be found in patent US4346089A, “1-Aza-4-oxa-bicyclo [4,4,0]decane derivatives” (Beecham Group Limited, priority 1980, dated 1982).

Assay type in all cases: in vivo
In test [1] the test system is intragastric pressure. Description: Increase in intragastric pressure in the rat (gastric activity). The following applies: sc, 40 min, conscious starved rats, subcutaneous, 40 minute period after administration, read-out: minimum dose for activity (increase in intragastric pressure), Dose mg/kg Subcutaneously. As for the experimental part:
Increase in intragastric pressure in the rat
Intragastric pressure changes were recorded from previously starved conscious but retrained rats using a saline filled catheter inserted into the lumen of the stomach via a permanent gastric fistula. The catheter was connected to a physiological pressure transducer and pressure changes recorded on a hot wire pen recorder. In each animal pre-dose period of 40 minutes was allowed to obtain a measure of spontaneous activity. An index of activity was obtained by measuring the average height of pressure waves during 10 minute periods. Values for 4 such periods were obtained during assessment of spontaneous activity and for the 40 minute period after the subcutaneous administration of the compounds. Students `t` test was applied to the difference in average values obtained for spontaneous and post-compound activity.

Test [2] concerns apomorphine induced climbing. The test is described as follows: Inhibition of apomorphine induced climbing in the mouse. The following applies: apomorphine 1 mg/kg s.c.; for ED50: Mus musculus, sc, scored at 10, 20 and 30 minutes, read-out: Dose mg/kg ED50 (dose that inhibits the apomorphine response by 50%). On the procedure:
Compounds were also tested for their ability to inhibit apomorphine induced climbing in the mouse. Inactivity in this test may be indicative of a low propensity to produce extra-pyramidal side-effects in man.
The method used for this test is as set out below:
Inhibition of apomorphine induced climbing in the mouse
The test is based on that described by Protais, P., Constantin, J. and Schwartz, J. C. (1976), Psychopharmacology, 50, 1-6.
Apomorphine 1 mg/kg s.c. induces mice to climb the wall of a wire cage (inverted food hopper--11×7.5×18 cm high). Mice acclimatised in their home cages in groups of 5 are placed under the hoppers immediately after the injection of apomorphine 1 mg/kg s.c. At 10, 20 and 30 minutes after injection climbing behaviour is scored. The mice are observed for 30 seconds and scored according to the position in which they spend the majority of time, score 0--four paws on floor of cage; score 1--fore paws only on walls; score 2--all paws on wall of cage.
The scores at all 3 times for each mouse are summed for apomorphine only and for apomorphine plus compound groups of mice.
Total scores are then calculated as the percentage inhibition of climbing as follows: [formula]
From graphical representation of the results ED50 values (the dose that inhibits the apomorphine response by 50%) are then obtained.

In test [3] the test system is intragastric pressure. Description: Increase in intragastric pressure in the rat (gastric activity). The following applies: conscious starved rats, oral, read-out: minimum dose for activity (increase in intragastric pressure), Dose mg/kg Orally.

Read-outs that look alike come from different tables or passages of the source.

For `COc1cc(N)c(Cl)cc1C(=O)N[C@H]1CCN2CC[S+]([O-])C[C@H]2C1` (mixture of isomers) [Example 18, (±) 4-Amino-5-chloro-2-methoxy-N-(8β-1-aza-6α-H-4-oxothiabicyclo[4,4,0]decyl)benzamide], the minimal effective dose in test [1] turned out to be 1 mg/kg.

`COc1cc(N)c(Cl)cc1C(=O)NC1CCN2CC[S+]([O-])CC2C1` (racemic) [Example 16, (±) 4-Amino-5-chloro-2-methoxy-N-(8α,β-1-aza-6α-H-4-oxothiabicyclo[4,4,0]decyl)benzamide]: the minimal effective dose in test [1] was found to be 5 mg/kg. In test [2] (at 10 mg/kg po), the “Dose mg/kg ED50: Ia at stated dose (inhibition of apomorphine induced climbing)” value is recorded as “Ia at 10 po”.

With `COc1cc(N)c(Cl)cc1C(=O)N[C@H]1CCN2CCOC[C@@H]2C1` (relative stereo) [Example 2, (±) 4-Amino-5-chloro-2-methoxy-N-(8α-1-aza-6α-H-4-oxabicyclo [4,4,0]decyl)benzamide], the minimal effective dose in test [1] and in test [3] was 0.5 mg/kg in each case. The ED50 in test [2] (route of compound not given) is 70 mg/kg.

With `COc1cc(N)c(Cl)cc1C(=O)N[C@H]1CCN2CCOC[C@H]2C1` (relative stereo) [Example 4, (±) 4-Amino-5-chloro-2-methoxy-N-(8β-1-aza-6α-H-4-oxabicyclo [4,4,0]delcyl)benzamide], in test [1], the minimal effective dose amounted to 1 mg/kg. Also, the ED50 in test [2] (route of compound not given) came to 30 mg/kg.

In the case of `COc1cc(N)c(Cl)cc1C(=O)N[C@H]1CCN2[C@H](COC[C@H]2C)C1` (relative stereo) [Example 6, (±) 4-Amino-5-chloro-2-methoxy-N-(8α-1-aza-2β-methyl-6α-H-4-oxabicyclo[4,4,0]decyl)benzamide], the minimal effective dose in test [1] stood at 0.2 mg/kg; in test [3], 0.5 mg/kg. In test [2] (route of compound not given), the ED50 came out at 40 mg/kg.

Turning to `COc1cc(N)c(Cl)cc1C(=O)N[C@H]1CCN2CCSC[C@@H]2C1` (relative stereo) [Example 8, (±) 4-Amino-5-chloro-2-methoxy-N-(8α-1-aza-6α-H-4-thiabicyclo [4,4 ,0]decyl)benzamide], the minimal effective dose in test [1] worked out at 5 mg/kg. Besides, in test [2] (at 25 mg/kg, route of compound not given), the “Dose mg/kg ED50: Ia at stated dose (inhibition of apomorphine induced climbing)” value is given as “Ia at 25”.

As to `COc1cc(N)c(Cl)cc1C(=O)N[C@H]1CCN2CCSC[C@H]2C1` (relative stereo) [Example 10, (±) 4-Amino-5-chloro-2-methoxy-N-(8β-aza-6α-H-4-thiabicyclo [4,4,0]decyl)benzamide], the minimal effective dose in test [1] stood at 1 mg/kg.

On to `COc1cc(N)c(Cl)cc1C(=O)N[C@H]1CCN2[C@H](COC[C@H]2c2ccccc2)C1` (relative stereo) [Example 12, (±) 4-Amino-5-chloro-2-methoxy-N-(8α-1-aza-2β-phenyl-6α-H-4-oxabicyclo[4,4,0]decyl)benzamide], for which the ED50 in test [2] (route of compound not given) was 30 mg/kg.

As for `COc1cc(N)c(Cl)cc1C(=O)N[C@@H]1CCN2[C@H](COC[C@H]2c2ccccc2)C1` (relative stereo) [Example 14, (±) 4-Amino-5-chloro-2-methoxy-N-(8β-1-aza-2β-phenyl-6α-H-4-oxabicyclo[4,4,0]decyl)benzamide monohydrate], the minimal effective dose in test [1] stood at 1 mg/kg. For the same compound, the “Dose mg/kg ED50: Ia at stated dose (inhibition of apomorphine induced climbing)” value in test [2] (at 10 mg/kg po) is given as “Ia at 10 po”.
